# pIC50: −log10 of the molar value.
# System: SUDHL6 cells
# Test: Cell anti-proliferation assay ([3H] thymidine)
# Format: cell-based
# Details: Homo sapiens, SU-DHL-6, IC50 range
# Procedure: Compounds of the invention were profiled in a B-lymphocyte anti-proliferation assay using SUDHL6 cells. On Day 0, SUDHL cells (7,500) were plated in RPMI media with FBS medium in a 96-well plate. On Day 1, Compounds of the invention were charged on top of the plated cells with a 1% DMSO final concentration. On Day 3, [^3H] Thymidine was added at 100 nCi/well. On Day 4, the cells were harvested using a cell harvester on a GF/C filter mat and dried in a hot air oven. Cell readout was obtained using a scintillation counter, and the activity of the compound was determined as an IC50 value.
row,SMILES,pIC50
1,"Nc1ncnc2c1c(-c1cc(O)cc(F)c1)nn2C1Cc2ccccc2C1 [compound 3, 3-(4-amino-1-(2,3-dihydro-1H-inden-2-yl)-1H-pyrazolo[3,4-d]pyrimidin-3-yl)-5-fluorophenol]",5.00 to 6.00
2,"Nc1ncnc2c1c(-c1cc(O)cc(F)c1)nn2C1CCc2ccccc2C1 (centres unmarked) [compound 6, 3-(4-amino-1-(1,2,3,4-tetrahydronaphthalen-2-yl)-1H-pyrazolo[3,4-d]pyrimidin-3-yl)-5-fluorophenol]",5.00 to 6.00

# — patent US20210317140A1, “Heterocyclic Compounds and Methods of Use” (MEDIVATION TECHNOLOGIES, INC, priority 2013, published 2021)
